# Assay results reported in ChEMBL document CHEMBL3885881, “DrugMatrix”.
# Species on record: Rattus norvegicus
# Assay: DrugMatrix - Regimen: Daily Repeat
# Format: toxicity, organism-based, Sprague-Dawley
# Design: regimen Daily Repeat, gender Male, age 6-8 weeks
# Details: in vivo, po, route oral GAVAGE, […]; for ABSOLUTE BASOPHIL / BASOPHIL / NUCLEATED RED BLOOD CELLS / ABSOLUTE EOSINOPHIL / ABSOLUTE LYMPHOCYTE / ABSOLUTE MONOCYTE / ABSOLUTE SEGMENTED NEUTROPHIL / EOSINOPHIL / ERYTHROCYTE COUNT / HEMATOCRIT / HEMOGLOBIN / LEUKOCYTE COUNT / LYMPHOCYTE / MEAN CORPUSCULAR HEMOGLOBIN / MEAN CORPUSCULAR HEMOGLOBIN CONCENTRATION / MEAN CORPUSCULAR VOLUME / MONOCYTE / NEUTROPHIL / PLATELET COUNT: tissue Blood; for ALANINE AMINOTRANSFERASE / ALBUMIN / ALKALINE PHOSPHATASE / ASPARTATE AMINOTRANSFERASE / BLOOD UREA NITROGEN / CARBON DIOXIDE / CHLORIDE / CHOLESTEROL / CREATINE PHOSPHOKINASE / CREATININE / GLUCOSE / LACTATE DEHYDROGENASE / LIPASE / PHOSPHORUS / POTASSIUM / SODIUM / TOTAL BILIRUBIN / TOTAL PROTEIN / URIC ACID: tissue Plasma
# [1] = 0 mg/kg, 72 h, dose level Control, time 3 day
# [2] = 0 mg/kg, 120 h, dose level Control, time 5 day
# [3] = 52 mg/kg, 72 h, dose level Low, time 3 day
# [4] = 52 mg/kg, 120 h, dose level Low, time 5 day
# [5] = 89 mg/kg, 72 h, dose level M1, time 3 day
# [6] = 89 mg/kg, 120 h, dose level M1, time 5 day
smiles,measurement,setting,value
Clc1ccccc1C(c1ccccc1)(c1ccccc1)n1ccnc1 [CLOTRIMAZOLE],ABSOLUTE BASOPHIL,[1],0 CELLS/uL
same,BASOPHIL,[1],0%
same,NUCLEATED RED BLOOD CELLS,[1],0 /100WBC
same,ABSOLUTE BASOPHIL,[2],0 CELLS/uL
same,BASOPHIL,[2],0%
same,ABSOLUTE BASOPHIL,[3],0 CELLS/uL
same,ABSOLUTE EOSINOPHIL,[3],0 CELLS/uL
same,ABSOLUTE LYMPHOCYTE,[3],7378.33 CELLS/uL
same,ABSOLUTE MONOCYTE,[3],76.67 CELLS/uL
same,ABSOLUTE SEGMENTED NEUTROPHIL,[3],611.67 CELLS/uL
same,BASOPHIL,[3],0%
same,EOSINOPHIL,[3],0%
same,ERYTHROCYTE COUNT,[3],4.96 x10E6/uL
same,HEMATOCRIT,[3],32.7%
same,HEMOGLOBIN,[3],12.97 G/DL
same,LEUKOCYTE COUNT,[3],8.07 x10E3/uL
same,LYMPHOCYTE,[3],91.33%
same,MEAN CORPUSCULAR HEMOGLOBIN,[3],26.17 pg
same,MEAN CORPUSCULAR HEMOGLOBIN CONCENTRATION,[3],39.67 G/DL
same,MEAN CORPUSCULAR VOLUME,[3],65.97 fL
same,MONOCYTE,[3],1%
same,NEUTROPHIL,[3],7.67%
same,NUCLEATED RED BLOOD CELLS,[3],0 /100WBC
same,PLATELET COUNT,[3],996.33 x10E3/uL
same,ALANINE AMINOTRANSFERASE,[3],116 u/L
same,ALBUMIN,[3],3.73 G/DL
same,ALKALINE PHOSPHATASE,[3],475.33 u/L
same,ASPARTATE AMINOTRANSFERASE,[3],102.67 u/L
same,BLOOD UREA NITROGEN,[3],13.33 mg/dL
same,CARBON DIOXIDE,[3],38 mmol/L
same,CHLORIDE,[3],99 MEQ/L
same,CHOLESTEROL,[3],69.33 mg/dL
same,CREATINE PHOSPHOKINASE,[3],256 u/L
same,CREATININE,[3],0.12 mg/dL
same,GLUCOSE,[3],158 mg/dL
same,LACTATE DEHYDROGENASE,[3],99 u/L
same,LIPASE,[3],11 u/L
same,PHOSPHORUS,[3],9.1 mg/dL
same,POTASSIUM,[3],5.46 MEQ/L
same,SODIUM,[3],142.67 MEQ/L
same,TOTAL BILIRUBIN,[3],0.17 mg/dL
same,TOTAL PROTEIN,[3],5.43 G/DL
same,URIC ACID,[3],0.57 mg/dL
same,ABSOLUTE BASOPHIL,[4],0 CELLS/uL
same,ABSOLUTE EOSINOPHIL,[4],0 CELLS/uL
same,ABSOLUTE LYMPHOCYTE,[4],8088.33 CELLS/uL
same,ABSOLUTE MONOCYTE,[4],127.33 CELLS/uL
same,ABSOLUTE SEGMENTED NEUTROPHIL,[4],651 CELLS/uL
same,BASOPHIL,[4],0%
same,EOSINOPHIL,[4],0%
same,ERYTHROCYTE COUNT,[4],5.31 x10E6/uL
same,HEMATOCRIT,[4],34.07%
same,HEMOGLOBIN,[4],13.3 G/DL
same,LEUKOCYTE COUNT,[4],8.87 x10E3/uL
same,LYMPHOCYTE,[4],91.67%
same,MEAN CORPUSCULAR HEMOGLOBIN,[4],25.1 pg
same,MEAN CORPUSCULAR HEMOGLOBIN CONCENTRATION,[4],39.1 G/DL
same,MEAN CORPUSCULAR VOLUME,[4],64.2 fL
same,MONOCYTE,[4],1.33%
same,NEUTROPHIL,[4],7%
same,NUCLEATED RED BLOOD CELLS,[4],0 /100WBC
same,PLATELET COUNT,[4],1063.67 x10E3/uL
same,ALANINE AMINOTRANSFERASE,[4],68 u/L
same,ALBUMIN,[4],3.9 G/DL
same,ALKALINE PHOSPHATASE,[4],421.33 u/L
same,ASPARTATE AMINOTRANSFERASE,[4],83.33 u/L
same,BLOOD UREA NITROGEN,[4],13.33 mg/dL
same,CARBON DIOXIDE,[4],27.33 mmol/L
same,CHLORIDE,[4],104.33 MEQ/L
same,CHOLESTEROL,[4],79.67 mg/dL
same,CREATINE PHOSPHOKINASE,[4],203.67 u/L
same,CREATININE,[4],0.34 mg/dL
same,GLUCOSE,[4],183 mg/dL
same,LACTATE DEHYDROGENASE,[4],97.67 u/L
same,LIPASE,[4],12.67 u/L
same,PHOSPHORUS,[4],12.3 mg/dL
same,POTASSIUM,[4],5.8 MEQ/L
same,SODIUM,[4],144.6 MEQ/L
same,TOTAL BILIRUBIN,[4],0.1 mg/dL
same,TOTAL PROTEIN,[4],6.03 G/DL
same,URIC ACID,[4],0.63 mg/dL
same,ABSOLUTE BASOPHIL,[5],0 CELLS/uL
same,ABSOLUTE EOSINOPHIL,[5],25.67 CELLS/uL
same,ABSOLUTE LYMPHOCYTE,[5],8596 CELLS/uL
same,ABSOLUTE MONOCYTE,[5],0 CELLS/uL
same,ABSOLUTE SEGMENTED NEUTROPHIL,[5],345 CELLS/uL
same,BASOPHIL,[5],0%
same,EOSINOPHIL,[5],0.33%
same,ERYTHROCYTE COUNT,[5],5.65 x10E6/uL
same,HEMATOCRIT,[5],35.6%
same,HEMOGLOBIN,[5],13.1 G/DL
same,LEUKOCYTE COUNT,[5],8.97 x10E3/uL
same,LYMPHOCYTE,[5],95.33%
same,MEAN CORPUSCULAR HEMOGLOBIN,[5],23.17 pg
same,MEAN CORPUSCULAR HEMOGLOBIN CONCENTRATION,[5],36.8 G/DL
same,MEAN CORPUSCULAR VOLUME,[5],63.03 fL
same,MONOCYTE,[5],0%
same,NEUTROPHIL,[5],4.33%
same,NUCLEATED RED BLOOD CELLS,[5],0 /100WBC
same,PLATELET COUNT,[5],1000.33 x10E3/uL
same,ALANINE AMINOTRANSFERASE,[5],74.67 u/L
same,ALBUMIN,[5],3.87 G/DL
same,ALKALINE PHOSPHATASE,[5],348.33 u/L
same,ASPARTATE AMINOTRANSFERASE,[5],101.33 u/L
same,BLOOD UREA NITROGEN,[5],15.67 mg/dL
same,CARBON DIOXIDE,[5],31.33 mmol/L
same,CHLORIDE,[5],99.67 MEQ/L
same,CHOLESTEROL,[5],51 mg/dL
same,CREATINE PHOSPHOKINASE,[5],324.67 u/L
same,CREATININE,[5],0.17 mg/dL
same,GLUCOSE,[5],143.67 mg/dL
same,LACTATE DEHYDROGENASE,[5],156.33 u/L
same,LIPASE,[5],11 u/L
same,PHOSPHORUS,[5],10.37 mg/dL
same,POTASSIUM,[5],5.81 MEQ/L
same,SODIUM,[5],144 MEQ/L
same,TOTAL BILIRUBIN,[5],0.13 mg/dL
same,TOTAL PROTEIN,[5],5.63 G/DL
same,URIC ACID,[5],0.4 mg/dL
same,ABSOLUTE BASOPHIL,[6],0 CELLS/uL
same,ABSOLUTE EOSINOPHIL,[6],0 CELLS/uL
same,ABSOLUTE LYMPHOCYTE,[6],14137.33 CELLS/uL
same,ABSOLUTE MONOCYTE,[6],157.33 CELLS/uL
same,ABSOLUTE SEGMENTED NEUTROPHIL,[6],1305.33 CELLS/uL
same,BASOPHIL,[6],0%
same,EOSINOPHIL,[6],0%
same,ERYTHROCYTE COUNT,[6],5.79 x10E6/uL
same,HEMATOCRIT,[6],36.4%
same,HEMOGLOBIN,[6],13.37 G/DL
same,LEUKOCYTE COUNT,[6],15.6 x10E3/uL
same,LYMPHOCYTE,[6],91%
same,MEAN CORPUSCULAR HEMOGLOBIN,[6],23.1 pg
same,MEAN CORPUSCULAR HEMOGLOBIN CONCENTRATION,[6],36.73 G/DL
same,MEAN CORPUSCULAR VOLUME,[6],62.87 fL
same,MONOCYTE,[6],1%
same,NEUTROPHIL,[6],8%
same,NUCLEATED RED BLOOD CELLS,[6],0 /100WBC
same,PLATELET COUNT,[6],1140.67 x10E3/uL
same,ALANINE AMINOTRANSFERASE,[6],77.33 u/L
same,ALBUMIN,[6],4.17 G/DL
same,ALKALINE PHOSPHATASE,[6],461 u/L
same,ASPARTATE AMINOTRANSFERASE,[6],103 u/L
same,BLOOD UREA NITROGEN,[6],13.67 mg/dL
same,CARBON DIOXIDE,[6],23.67 mmol/L
same,CHLORIDE,[6],102 MEQ/L
same,CHOLESTEROL,[6],58 mg/dL
same,CREATINE PHOSPHOKINASE,[6],255 u/L
same,CREATININE,[6],0.13 mg/dL
same,GLUCOSE,[6],97.33 mg/dL
same,LACTATE DEHYDROGENASE,[6],293 u/L
same,LIPASE,[6],38.67 u/L
same,PHOSPHORUS,[6],9.33 mg/dL
same,POTASSIUM,[6],7.02 MEQ/L
same,SODIUM,[6],147.95 MEQ/L
same,TOTAL BILIRUBIN,[6],0.33 mg/dL
same,TOTAL PROTEIN,[6],6.23 G/DL
same,URIC ACID,[6],1.27 mg/dL
